# Patent US9296720B2, “Carboxamide-substituted heteroaryl-pyrazoles and the use thereof” (AiCuris GmbH & Co. KG, priority 2011, dated 2016)
# Where two headings read alike, the source gives them in different places.
# Tests used:
# Assay type in all cases: cell-based
# HIV-1NL4-3 Wild Type = assay: Luminescence reduction assay, MT4 cells infected with HIV-1NL4-3 luciferase reporter virus, wild type; settings: 2% FCS
# Text: (§1) For this assay, HIV-1NL4-3 reporter viruses are used, which carry the luciferase164 gene (lu164) instead of the nef gene. The viruses are generated by transfection of 293T cells with the corresponding proviral pNL4-3 plasmid (Lipofectamine Reagent, Invitrogen, Karlsruhe, Germany). Starting from the proviral plasmid-DNA, viruses with defined resistance mutations in the reverse transcriptase gene are produced with the “QuikChange II XL Site-Directed Mutagenesis Kit” (Stratagene, Cedar Creek, Tex., USA). Among other things, the following mutations are generated: A98G, A98G-K103N-V108I, A98S, F227C, F227L, G190A, G190S, K101E, K101Q-K103N, K103N, K103N-F227L, K103N-G190A, K103N-G190S, K103N-M230L, K103N-N348I, K103N-P225H, K103N-V108I, K103N-V108I-P225H, K103N-V179F-Y181C, K103N-Y181C, K103N-Y181C-G190A, L100I, L100I-K103N, L100I-K103N-V179I-Y181C, L100I-K103N-Y181C, L234I, N348I, P225H, P236L, V106A, V106A-E138K, V106A-F227C, V106A-F227L, V106I, V106I-Y188L, V106M, V108I, V179F-Y181C, V179I, V179I-Y181C, Y181C, Y181C-G190A, Y181C-M230L, Y181I, Y188L. MT4 cells infected with these reporter viruses (NIH AIDS Research and Reference Reagent Program) secrete luciferase into the medium, which makes possible the luminometric quantification of the virus replication.
# (§2) For the batch of a 96-well MTP, 3 million MT4 cells are pelletized, suspended in 1 ml of RPMI 1640 medium without phenol red (Invitrogen, Karlsruhe, Germany)/10% FCS/2 mmol of L-glutamine/1% Pen/Strep (Invitrogen, Karlsruhe, Germany), and incubated together with a suitable amount of the corresponding HIV-1NL4-3 reporter virus for 2 hours at 37° C. (pellet infection). Non-adsorbed viruses are then washed out with PBS, the infected cells are pelletized again, and suspended in 8 ml of RPM 11640 medium without phenol red/2% or 10% FCS/2 mmol of L-glutamine/1% Pen/Strep. Therefrom, 80 μl per well is pipetted into a white 96-well MTP in 20 μl of test substance in a suitable dilution. In order to avoid boundary effects, the edge wells of the MTP are not used for substance dilutions. The second vertical row of the MTP contains only infected cells (virus control), and the eleventh vertical row contains only non-infected cells (cell control) in each case in RPMI 1640 medium without phenol red/2% or 10% FCS/2 mmol of L-glutamine/1% Pen/Strep. The other wells of the MTP contain the compounds according to the invention in different concentrations starting from the third vertical row, from which dilution of the test substances is carried out 3^7 times in three steps up to the tenth vertical row. The test substances are dissolved in DMSO, whereby the DMSO final concentration in the test batch is ultimately 1%. The test batches are incubated for 5 days at 37° C./5% CO2, and are luminometrically evaluated after the addition of 15 μl of Lu164-buffer (65 mmol of NaCl, 300 mmol of MES, pH 5.8, 5 mmol of glutathione and 1:200 coelenterazine (5 mg/ml in 30 μM of glutathione/DMSO) (P.J.K. GmbH, Kleinblittersdorf, Germany)). In the virus control, the resulting values are in the range of 1 million RLUs (relative light units), and in the cell control, the resulting values are 300 to 400 RLUs. The EC50 values of the test substances are determined as the concentration of the treated infected cells, in which the virus replication measured in RLUs is 50% of the untreated infected cells.
# HIV-1NL4-3 K103N-Y181C = assay: Luminescence reduction assay, MT4 cells infected with HIV-1NL4-3 luciferase reporter virus, RT mutant K103N-Y181C
# Text: as §1, §2
# HIV-1LAI Wild Type = assay: AlamarBlue viability assay, HIV-1LAI-infected MT4 cells; settings: 10% FCS
# Description: For the batch of a 96-well MTP, 3 million PBLs are pelletized, suspended in 1 ml of RPMI 1640 medium/10% FCS/2 mmol of L-glutamine/1% Pen/Strep, and incubated together with a suitable amount of HIV-1LA1 (NIH AIDS Research & Reference Reagent Program, Germantown, USA) for 2 hours at 37° C. (pellet infection). Non-adsorbed viruses are then washed out with PBS, the infected cells are pelletized again, and suspended in 18 ml of RPMI 1640 medium/10% FCS/2 mmol of L-glutamine/1% Pen/Strep/interleukin-2 (40 U/ml). Therefrom, 180 μl per well is pipetted into a white 96-well MTP in 20 μl of test substance in a suitable dilution. As an alternative, after preparation of the substance dilutions, the HIV is added by pipetting in the MTP together with the cells and is no longer washed out (supernatant infection). In order to avoid boundary effects, the edge wells of the MTP are not used for substance dilutions. The second vertical row of the MTP contains only infected cells (virus control), and the eleventh vertical row contains only non-infected cells (cell control) in each case in RPMI 1640 medium/10% FCS/2 mmol of L-glutamine/1% Pen/Strep/interleukin-2 (40 U/ml). The other wells of the MTP contain the compounds according to the invention in different concentrations starting from the third vertical row, from which dilution of the test substances is carried out 3^7 times in three steps up to the tenth vertical row. The test substances are dissolved in DMSO, whereby the DMSO final concentration in the test batch is ultimately 1%. The test batches are incubated at 37° C./5% CO2. After 5 and 7 days, in each case 50 μl of cell-free supernatant is drawn off from each well in order to determine the amount of p24 contained by means of p24 ELISA (HIV-1 p24^CA Antigen Capture Assay Kit, NCI-Frederick Cancer Research and Development Center, Frederick, USA). From the resulting values of the photometric analysis (450/620 nm), the EC50 values of the test substances are determined as the concentration of the treated infected cells, in which the amount of p24 is 50% of the untreated infected cells.
# As an alternative, MT4 cells are used for testing test substances instead of PBLs. HIV-1LA1-infected MT4 cells (MOI 0.01, supernatant infection) are incubated according to the above-described pattern in RPMI 1640 medium with 2% or 10% FCS/2 mmol of L-glutamine/1% Pen/Strep in the presence of test substances for 5 days at 37° C./5% CO2 (20 μl of substance dilution and 80 μl of cells/virus per well). Then, 10 μl of AlamarBlue (Invitrogen, Karlsruhe, Germany) is added to each well, and MTPs are incubated for 3 hours at 37° C., before the fluorimetric analysis is done (544/590 nm). The resulting values are approximately 30,000 in the case of untreated, non-infected cells, and approximately 6,000 in the case of untreated infected cells. In the low concentration range, the EC50 values of the test substances are determined as the concentration of the treated infected cells, in which the fluorescence is 50% of the untreated non-infected cells (in each case relative to the values of the untreated infected cells). In addition, in the high concentration range, the CC50 values of the test substances are determined as the concentration of the treated infected cells, in which the fluorescence is 50% of the untreated, non-infected cells (in each case relative to the values of the untreated infected cells).
# [1] = Human immunodeficiency virus 1, MT4, MT4 cells
# [2] = Human immunodeficiency virus 1, MT4, read-out: EC50 (μM) MT4 Cells HIV-1NL4-3 K103N-Y181C 2% FCS, MT4 cells, HIV-1NL4-3 K103N-Y181C, 2% FCS
Compound,EC50 (HIV-1NL4-3 Wild Type; [1]) [µM],EC50 (HIV-1NL4-3 K103N-Y181C; [2]) [µM],EC50 (HIV-1LAI Wild Type; [1]) [µM],EC50 (HIV-1NL4-3 Wild Type; MT4 cells) [µM],"EC50 (HIV-1NL4-3 K103N-Y181C; read-out: EC50 (μM) MT4 Cells HIV-1NL4-3 K103N-Y181C 2% FCS, MT4 cells, HIV-1NL4-3 K103N-Y181C, 2% FCS) [µM]",EC50 (HIV-1LAI Wild Type; MT4 cells) [µM]
"O=C1CN(C(=O)c2cc(-c3cc(F)cc(Br)c3)n(-c3ccnc(Cl)c3)n2)CCN1 [Example 93, 4-{[5-(3-Bromo-5-fluorophenyl)-1-(2-chloropyridin-4-yl)-1H-pyrazol-3-yl]carbonyl}piperazin-2-one]",0.016,0.256,0.137,,,
"O=C(c1cc(-c2cc(F)cc(Cl)c2)n(-c2cccnc2)n1)N1CCSC1 [Example 5, [5-(3-Chloro-5-fluorophenyl)-1-(pyridin-3-yl)-1H-pyrazol-3-yl](1,3-thiazolidin-3-yl)methanone]",0.023,1.32,0.533,,,
COc1cc(Br)cc(-c2cc(C(=O)N3CCNC(=O)C3)nn2-c2cccnc2)c1 [Example 95],0.005,0.054,0.033,,,
"O=C1CN(C(=O)c2cc(-c3cc(F)cc(OC(F)(F)F)c3)n(-c3cccnc3)n2)CN1 [Example 57, 1-({5-[3-Fluoro-5-(trifluoromethoxy)phenyl]-1-(pyridin-3-yl)-1H-pyrazol-3-yl}carbonyl)imidazolidin-4-one]",0.016,0.05,0.183,,,
"COc1cc(Br)cc(-c2cc(C(=O)N3CNC(=O)C3)nn2-c2cccnc2)c1 [Example 94, 1-{[5-(3-Bromo-5-methoxyphenyl)-1-(pyridin-3-yl)-1H-pyrazol-3-yl]carbonyl}imidazolidin-4-one]",< 0.002,0.012,0.006,,,
"O=C(c1cc(-c2cc(F)cc(Cl)c2)n(-c2cccnc2)n1)N1CC[S+]([O-])C1 (racemic) [Example 6-2, [5-(3-Chloro-5-fluorophenyl)-1-(pyridin-3-yl)-1H-pyrazol-3-yl](1-oxido-1,3-thiazolidin-3-yl)methanone]",,,,0.007,0.986,0.112
"Cc1cc(-n2nc(C(=O)N3CNC(=O)C3)cc2-c2cc(F)cc(Cl)c2)ccn1 [Example 21, 1-{[5-(3-Chloro-5-fluorophenyl)-1-(2-methylpyridin-4-yl)-1H-pyrazol-3-yl]carbonyl}imidazolidin-4-one]",0.092,0.436,0.397,,,
"O=C1CN(C(=O)c2cc(-c3cncc(C(F)(F)F)c3)n(-c3cccc(Cl)c3)n2)CN1 [Example 108, 1-({1-(3-Chlorophenyl)-5-[5-(trifluoromethyl)pyridin-3-yl]-1H-pyrazol-3-yl}carbonyl)imidazolidin-4-one]",0.052,0.093,0.036,,,
"O=C(c1cc(-c2cc(F)cc(Cl)c2)n(-c2ccnc(C(F)(F)F)c2)n1)N1CCS(=O)(=O)C1 [Example 20, {5-(3-Chloro-5-fluorophenyl)-1-[2-(trifluoromethyl)pyridin-4-yl]-1H-pyrazol-3-yl}(1,1-dioxido-1,3-thiazolidin-3-yl)methanone]",0.162,1.39,1.46,,,
"O=C(c1cc(-c2cc(Br)cc(OC(F)(F)F)c2)n(-c2ccc[n+]([O-])c2)n1)N1CCS(=O)(=O)C1 [Example 33, {5-[3-Bromo-5-(trifluoromethoxy)phenyl]-1-(1-oxidopyridin-3-yl)-1H-pyrazol-3-yl}(1,1-dioxido-1,3-thiazolidin-3-yl)methanone]",0.069,0.299,1.02,,,
"O=C(c1cc(-c2cc(Br)cc(OC(F)(F)F)c2)n(-c2cccnc2)n1)N1CCS(=O)(=O)C1 [Example 32, {5-[3-Bromo-5-(trifluoromethoxy)phenyl]-1-(pyridin-3-yl)-1H-pyrazol-3-yl}(1,1-dioxido-1,3-thiazolidin-3-yl)methanone]",0.007,0.014,0.083,,,
"O=C1CN(C(=O)c2cc(-c3cc(F)cc(OC(F)F)c3)n(-c3ccnc(Cl)c3)n2)CN1 [Example 68, 1-({1-(2-Chloropyridin-4-yl)-5-[3-(difluoromethoxy)-5-fluorophenyl]-1H-pyrazol-3-yl}carbonyl)imidazolidin-4-one]",0.062,0.193,0.326,,,
"O=C1CN(C(=O)c2cc(-c3cc(F)cc(OC(F)(F)F)c3)n(-c3ccnc(Cl)c3)n2)CN1 [Example 62, 1-({1-(2-Chloropyridin-4-yl)-5-[3-fluoro-5-(trifluoromethoxy)phenyl]-1H-pyrazol-3-yl}carbonyl)imidazolidin-4-one]",0.044,0.066,0.352,,,
"O=C1CN(C(=O)c2cc(-c3cc(Br)cc(OC(F)(F)F)c3)n(-c3ccc(Cl)nc3)n2)CCN1 [Example 35, 4-({5-[3-Bromo-5-(trifluoromethoxy)phenyl]-1-(6-chloropyridin-3-yl)-1H-pyrazol-3-yl}carbonyl)piperazin-2-one]",0.042,0.01,0.232,,,
